Data reported in patent publication US10266497B2 (ABIDE THERAPEUTICS, INC., priority 2017, dated 2019).

Columns and labels:
[1] = molecular target: T1, MAGL (Mus musculus, UniProt O35678); test: In vitro competitive activity-based protein profiling, MAGL, mouse; settings: read-out: MAGL % inh. 1 μM (mouse)
T1 sequence (O35678 1-303): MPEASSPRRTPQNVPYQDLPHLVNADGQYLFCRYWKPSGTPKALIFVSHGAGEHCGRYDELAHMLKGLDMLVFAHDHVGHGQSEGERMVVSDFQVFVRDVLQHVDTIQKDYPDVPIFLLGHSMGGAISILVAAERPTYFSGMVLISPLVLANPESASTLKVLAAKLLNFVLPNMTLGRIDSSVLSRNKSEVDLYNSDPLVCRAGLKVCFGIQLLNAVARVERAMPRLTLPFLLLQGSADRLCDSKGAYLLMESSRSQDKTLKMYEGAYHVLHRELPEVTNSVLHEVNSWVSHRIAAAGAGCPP

[2] = molecular target: T2, MAGL (Homo sapiens, UniProt Q99685); test: In vitro competitive activity-based protein profiling, MAGL, human; settings: read-out: MAGL % inh. 1 μM (human)
T2 sequence (Q99685 1-303): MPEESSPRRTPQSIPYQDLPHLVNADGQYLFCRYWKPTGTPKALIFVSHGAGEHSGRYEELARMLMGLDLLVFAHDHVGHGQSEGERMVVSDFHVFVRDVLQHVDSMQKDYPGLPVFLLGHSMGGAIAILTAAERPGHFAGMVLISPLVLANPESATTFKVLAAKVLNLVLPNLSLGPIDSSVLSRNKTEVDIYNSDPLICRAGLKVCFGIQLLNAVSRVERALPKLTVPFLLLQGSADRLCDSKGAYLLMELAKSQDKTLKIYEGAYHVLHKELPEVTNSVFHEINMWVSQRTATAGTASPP

Row | inhibition at 1 µM [1] | inhibition at 1 µM [2] | SMILES
1 | 0 to 25% | 25 to 50% | O=C(O)c1ccn(C(=O)N2CCC3(CCCN3Cc3ccc(C(F)(F)F)cc3N3CCN4CCC[C@H]4C3)CC2)n1 [Example 418, (S)-1-(1-(2-(hexahydropyrrolo[1,2-a]pyrazin-2(1H)-yl)-4-(trifluoromethyl)benzyl)-1,8-diazaspiro[4.5]decane-8-carbonyl)-1H-pyrazole-3-carboxylic acid]
2 | > 75% | > 75% | O=C(O)c1ccn(C(=O)N2C[C@H]3C[C@H](OCc4ccc(Cl)c(-c5nccs5)c4)C[C@H]3C2)n1 [Example 345, 1-(trans-5-((4-chloro-3-(thiazol-2-yl)benzyl)oxy)octa-hydrocyclopenta[c]pyrrole-2-carbonyl)-1H-pyrazole-3-carboxylic acid]
3 | > 75% | > 75% | C[C@@H]1CN(Cc2cccc(Oc3cc(C(F)(F)F)ccn3)c2)CCN1C(=O)n1ccc(C(=O)O)n1 [Example 374, (R)-1-(2-methyl-4-(3-((4-(trifluoromethyl)pyridin-2-yl)oxy)benzyl)piper-azine-1-carbonyl)-1H-pyrazole-3-carboxylic acid]
4 | > 75% | > 75% | CN(Cc1ccc(C(F)(F)F)cc1N1CCC1)C1(C)CCN(C(=O)n2ccc(C(=O)O)n2)CC1 [Example 362, 1-(4-((2-(azetidin-1-yl)-4-(trifluoromethyl)benzyl)(methyl)amino)-4-methylpiperidine-1-carbonyl)-1H-pyrazole-3-carboxylic acid]
5 | 0 to 25% | 0 to 25% | O=C(O)c1ccn(C(=O)N2C[C@H]3C[C@@H](NCc4ccc(Oc5ccc(Cl)cc5)cc4)C[C@H]3C2)n1 [Example 363, 1-(cis-5-((4-(4-chlorophenoxy)benzyl)amino)octa-hydrocyclopenta[c]pyrrole-2-carbonyl)-1H-pyrazole-3-carboxylic acid]
6 | > 75% | > 75% | O=C(O)c1ccn(C(=O)N2CCC3(CCCN3Cc3ccc(C(F)(F)F)cc3N3CC4CCC(C3)O4)CC2)n1 [Example 416, 1-(1-(2-(8-oxa-3-azabicyclo[3.2.1]octan-3-yl)-4-(trifluoromethyl)benzyl)-1,8-diazaspiro[4.5]decane-8-carbonyl)-1H-pyrazole-3-carboxylic acid]

Further lines, the molecule ahead of its results:

Row | SMILES | inhibition at 1 µM [1] | inhibition at 1 µM [2]
7 | O=C(O)c1ccn(C(=O)N2C[C@H]3C[C@H](Oc4cccc(C5CCCC5)c4)C[C@H]3C2)n1 [Example 232, 1-(trans-5-(3-cyclopentylphenoxy)octahydrocyclopenta [c]pyrrole-2-carbonyl)-1H-pyrazole-3-carboxylic acid] | > 75% | > 75%
8 | O=C(O)c1ccn(C(=O)N2CCN(Cc3ccc(C(F)(F)F)cc3N3CC[C@@H](O)C3)CC2)n1 [Example 333, (R)-1-(4-(2-(3-hydroxypyrrolidin-1-yl)-4-(trifluoromethyl)benzyl)piperazine-1-carbonyl)-1H-pyrazole-3-carboxylic acid] | > 75% | > 75%
9 | NC(=O)c1ccn(C(=O)N2CCC3(CCCN3Cc3cc4ccc(C(F)(F)F)cc4s3)CC2)n1 [Example 22, 1-(1-((6-(Trifluoromethyl)benzo[b]thiophen-2-yl)methyl)-1,8-diazaspiro[4.5]decane-8-carbonyl)-1H-pyrazole-3-carboxamide] | > 75% | > 75%
10 | O=C(O)c1ccn(C(=O)N2CCC3(CCN(Cc4cc(Cl)ccc4C(F)(F)F)CC3)CC2)n1 [Example 217, 1-(9-(5-chloro-2-(trifluoromethyl)benzyl)-3,9-diazaspiro[5.5]undecane-3-carbonyl)-1H-pyrazole-3-carboxylic acid] | > 75% | > 75%
11 | O=C(O)c1ccn(C(=O)N2C[C@H]3C[C@H](Oc4cccc(C(F)(F)F)c4)C[C@H]3C2)n1 [Example 231, 1-(trans-5-(3-(trifluoromethyl)phenoxy)octahydro-cyclopenta[c]pyrrole-2-carbonyl)-1H-pyrazole-3-carboxylic acid] | > 75% | > 75%
